What was measured:
Conditions in all cases: incubation time: 72 h
BT-549 [1] = assay: normalised response (% of control), CellTox Green; higher = less cell death (100 = DMSO, 0 = benzethonium chloride kill control)
In short: (§1)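 Every value is a normalised signal taken at one concentration of a dilution series. Compound was placed in 384-well plates at 5 concentrations in 10-fold steps over a compound-specific 10,000-fold range, and 20 µl of breast cancer cell suspension was seeded onto it. After 72 h, CellTox Green fluorescence (485/520 nm) was measured first and CellTiter-Glo luminescence second, following 10 min at room temperature. Each plate was scaled to 0.1 % DMSO (100) and a positive kill control (0).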

HCC1143 [2] = assay: as above
In short: as §1

CAL-85-1 [3] = assay: as above
In short: as §1

MDA-MB-436 = assay: as above
In short: as §1

MCF-10A [4] = assay: as above
In short: as §1

MFM-223 [5] = assay: as above
In short: as §1

BT-474 [6] = assay: as above
In short: as §1

HCC1937 [7] = assay: as above
In short: as §1

HDQ-P1 [8] = assay: as above
In short: as §1

Hs578T [9] = assay: as above
In short: as §1

MDA-MB-453 [10] = assay: as above
In short: as §1

DU-4475 [11] = assay: as above
In short: as §1

CAL-120 = assay: as above
In short: as §1

MDA-MB-231 [12] = assay: as above
In short: as §1

BT-549 [13] = assay: drug sensitivity score (DSS), CellTox Green (DSS (AUC-based score)); higher = stronger drug effect (viability inhibition or cytotoxicity); extreme values may be limits of the assay
In short: (§2)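 For 72 h, breast cancer cell lines seeded at 20 µl suspension per well in 384-well plates were incubated with compound at 5 concentrations in 10-fold steps spanning a 10,000-fold range that differed by compound. The first reading was CellTox Green fluorescence at 485/520 nm, and the second was CellTiter-Glo luminescence after 10 min at room temperature. Both were normalised per plate to 0.1 % DMSO and a positive kill control, and the drug sensitivity score was obtained from the area under the fitted dose-response curve.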

HCC1143 [14] = assay: as above
In short: as §2

CAL-85-1 [15] = assay: as above
In short: as §2

MCF-10A [16] = assay: as above
In short: as §2

MFM-223 [17] = assay: as above
In short: as §2

BT-474 [18] = assay: as above
In short: as §2

HCC1937 [19] = assay: as above
In short: as §2

HDQ-P1 [20] = assay: as above
In short: as §2

Hs578T [21] = assay: as above
In short: as §2

MDA-MB-453 [22] = assay: as above
In short: as §2

DU-4475 [23] = assay: as above
In short: as §2

CAL-148 = assay: as above
In short: as §2

HCC1599 = assay: as above
In short: as §2

MDA-MB-231 [24] = assay: as above
In short: as §2

| SMILES | normalised response (BT-549 [1]) | normalised response (HCC1143 [2]) | normalised response (CAL-85-1 [3]) | normalised response (MDA-MB-436) | normalised response (MCF-10A [4]) | normalised response (MFM-223 [5]) | normalised response (BT-474 [6]) | normalised response (HCC1937 [7]) | normalised response (HDQ-P1 [8]) | normalised response (Hs578T [9]) | normalised response (MDA-MB-453 [10]) | normalised response (DU-4475 [11]) | normalised response (CAL-120) | normalised response (MDA-MB-231 [12]) | drug sensitivity score (BT-549 [13]) | drug sensitivity score (HCC1143 [14]) | drug sensitivity score (CAL-85-1 [15]) | drug sensitivity score (MCF-10A [16]) | drug sensitivity score (MFM-223 [17]) | drug sensitivity score (BT-474 [18]) | drug sensitivity score (HCC1937 [19]) | drug sensitivity score (HDQ-P1 [20]) | drug sensitivity score (Hs578T [21]) | drug sensitivity score (MDA-MB-453 [22]) | drug sensitivity score (DU-4475 [23]) | drug sensitivity score (CAL-148) | drug sensitivity score (HCC1599) | drug sensitivity score (MDA-MB-231 [24]) |
| --- | --- | --- | --- | --- | --- | --- | --- | --- | --- | --- | --- | --- | --- | --- | --- | --- | --- | --- | --- | --- | --- | --- | --- | --- | --- | --- | --- | --- |
| COc1cc([C@@H]2c3cc4c(cc3[C@@H](O[C@@H]3O[C@@H]5CO[C@@H](C)O[C@H]5[C@H](O)[C@H]3O)[C@H]3COC(=O)[C@H]23)OCO4)cc(OC)c1O [Etoposide] (10000 nM) | 85.4% | 98.3% | 34.3% | 80.9% | 108% | 103% | 97.3% | 106% | 109% | 88.2% | 109% | 78.4% | 75.7% | 61% |  |  |  |  |  |  |  |  |  |  |  |  |  |  |
| CN(N=O)C(=O)N[C@@H](C=O)[C@@H](O)[C@H](O)[C@H](O)CO [Streptozocin] (10000 nM) | 96.1% |  | 80.7% | 68.7% | 116% | 88.1% | 105% | 71.6% | 110% | 136% | 84.9% | 98.1% | 110% | 106% |  |  |  |  |  |  |  |  |  |  |  |  |  |  |
| CC(=O)Nc1ccc(C(=O)Nc2ccccc2N)cc1 [Tacedinaline] |  |  |  |  |  |  |  |  |  |  |  |  |  |  | 0 | 0 | 0 | 0 | 0 | 0 | 0 | 0 | 0 | 0 | 0 | 0 | 0 | 0 |
| CCC1=C[C@@H]2CN(C1)Cc1c([nH]c3ccccc13)[C@@](C(=O)OC)(c1cc3c(cc1OC)N(C)[C@H]1[C@@](O)(C(=O)OC)[C@H](OC(C)=O)[C@]4(CC)C=CCN5CC[C@]31[C@@H]54)C2 [Vinorelbine] (10000 nM) | 43.6% | 106% | 71% | 70.8% | 41.4% | 42.7% | 59.1% | 83.1% | 97.8% | -16.6% | 90.3% | 90.9% | 75.5% | -5.22% |  |  |  |  |  |  |  |  |  |  |  |  |  |  |

Reference: the supplement of paper PMC4862054
